# Test results taken from ChEMBL document CHEMBL5154694, “Fascaplysin derivatives binding to DNA via unique cationic five-ring coplanar backbone showed potent antimicrobial/antibiofilm activity against MRSA in vitro and in vivo” (Eur J Med Chem, 2022).
# Active and inactive are the calls of the source. No cut-off for these calls is given here.
# What was measured:
# Staphylococcus aureus [1] = assay: Antibacterial activity against methicillin-resistant Staphylococcus aureus ATCC 4330 after 16 to 18 hrs by microbroth dilution method; type: functional; conditions: time 16-18 hrs
# Staphylococcus aureus [2] = assay: Bactericidal activity against methicillin-resistant Staphylococcus aureus ATCC 4330 assessed as reduction in bacterial counts at 2X MIC within 0.5 hrs by time-kill kinetic assay; type: functional
# Staphylococcus aureus [3] = assay: Bactericidal activity against methicillin-resistant Staphylococcus aureus ATCC 4330 assessed as reduction in bacterial counts at 4X MIC by time-kill kinetic assay; type: functional, organism-based
# Staphylococcus aureus [4] = assay: Bactericidal activity against methicillin-resistant Staphylococcus aureus ATCC 4330 assessed as reduction in bacterial counts at 1 to 4X MIC within 24 hrs by time-kill kinetic assay; type: functional
# [5] = Stability in plasma (unknown origin); type: ADME, cell-free; conditions: unidentified
# [6] = Cmax in rat plasma at 3 mg/kg, iv; type: ADME, organism-based; parameters: dose 3 mg/kg, route iv
# [7] = Cmax in rat plasma at 15 mg/kg, IG; type: ADME, organism-based; parameters: dose 15 mg/kg, route ig; conditions: po
# Staphylococcus aureus [8] = assay: Bactericidal activity against methicillin-resistant Staphylococcus aureus ATCC 4330 assessed as inhibition of bacterial regrowth at 2X MIC after 24 hrs by time-kill kinetic assay; type: functional, organism-based
# Staphylococcus aureus [9] = assay: Induction of membrane morphological changes in methicillin-resistant Staphylococcus aureus ATCC 4330 assessed as visible cell surface wrinkles at 4X MIC after 2 hrs by scanning electron microscopy; type: functional
# Staphylococcus aureus [10] = assay: Induction of membrane morphological changes in methicillin-resistant Staphylococcus aureus ATCC 4330 assessed as visible cell filaments at 4X MIC after 2 hrs by scanning electron microscopy; type: functional
# Staphylococcus aureus [11] = assay: Induction of membrane morphological changes in methicillin-resistant Staphylococcus aureus ATCC 4330 assessed as visible cell membrane disruption at 4X MIC after 2 hrs by transmission electron microscopy; type: functional
# Staphylococcus aureus [12] = assay: Induction of membrane morphological changes in methicillin-resistant Staphylococcus aureus ATCC 4330 assessed as visible cell wall fragments at 4X MIC after 2 hrs by transmission electron microscopy; type: functional
# Staphylococcus aureus [13] = assay: Induction of membrane morphological changes in methicillin-resistant Staphylococcus aureus ATCC 4330 assessed as ghost cells at 4X MIC after 2 hrs by transmission electron microscopy; type: functional
# Staphylococcus aureus [14] = assay: Induction of membrane morphological changes in methicillin-resistant Staphylococcus aureus ATCC 4330 assessed as permeable cells at 1 to 4X MIC measured after 30 to 120 mins by propidium iodide staining based flow cytometry assay; type: functional; conditions: time 30-120 min
# DNA [15] = assay: Inhibition of methicillin-resistant Staphylococcus aureus ATCC 4330 genomic DNA migration at 3.125 to 6.25 ug/ml measured by electrophoretic mobility assay; type: nucleic-acid assay; conditions: dose 3.125-6.25 µg/ml
# DNA [16] = assay: Binding affinity to methicillin-resistant Staphylococcus aureus ATCC 4330 DNA assessed as induction of confirmational changes at 50 ug/ml measured by Circular dichroism assay; type: nucleic-acid assay; conditions: dose 50.0 µg/ml
# [17] = Hemolytic activity in mouse erythrocytes assessed as hemolysis at 12.5 ug/ml relative to control; type: toxicity, cell-based, Erythrocyte; conditions: at 12.5 µg/mL, read-out: Activity
# [18] = Cytotoxicity against mouse RAW264.7 cells assessed as cell survival at 12.5 ug/ml incubated for 24 hrs by CCK-8 assay; type: toxicity, cell-based; conditions: at 12.5 µg/mL, read-out: Activity
# [19] = Cytotoxicity against mouse RAW264.7 cells assessed as cell survival at 25 ug/ml incubated for 24 hrs by CCK-8 assay; type: toxicity, cell-based; conditions: at 25 µg/mL, read-out: Activity
# [20] = Cytotoxicity against mouse RAW264.7 cells assessed as cell survival at 50 ug/ml incubated for 24 hrs by CCK-8 assay; type: toxicity, cell-based; conditions: at 50 µg/mL, read-out: Activity
# Staphylococcus aureus [21] = assay: Induction of membrane morphological changes in methicillin-resistant Staphylococcus aureus ATCC 4330 assessed as fluorescent intensity at 1 to 4X MIC measured after 30 to 120 mins by propidium iodide staining based flow cytometry assay; type: functional; conditions: time 30-120 min
# Staphylococcus aureus [22] = assay: Antibiofilm activity against methicillin-resistant Staphylococcus aureus ATCC 4330 assessed as inhibition of biofilm formation at 1.56 ug/ml after 24 hrs by crystal violet staining based assay relative to control; type: functional
# Staphylococcus aureus [23] = assay: Antibiofilm activity against methicillin-resistant Staphylococcus aureus ATCC 4330 assessed as fold change in upregulation of AgrA mRNA expression at 4X MIC after 2 hrs by qRT-PCR assay; type: functional
# Staphylococcus aureus [24] = assay: Antimicrobial activity against methicillin-resistant Staphylococcus aureus ATCC 4330 infected in female ICR peritonitis mouse model assessed as increase in survival rate of mouse at 10 mg/kg, ip; type: functional
# Staphylococcus aureus [25] = assay: Antimicrobial activity against methicillin-resistant Staphylococcus aureus ATCC 4330 infected in female ICR peritonitis mouse model assessed as survival time of mouse at 10 mg/kg, ip; type: functional
# Staphylococcus aureus [26] = assay: Antimicrobial activity against methicillin-resistant Staphylococcus aureus ATCC 4330 infected in female ICR peritonitis mouse model assessed as reduction in bacteria in blood at 10 mg/kg, ip; type: functional
# [27] = Toxicity in female ICR peritonitis mouse model infected with methicillin-resistant Staphylococcus aureus ATCC 4330 assessed as lung damage at 10 mg/kg, ip; type: organism-based; conditions: in vivo
# [28] = Toxicity in female ICR peritonitis mouse model infected with methicillin-resistant Staphylococcus aureus ATCC 4330 assessed as liver damage at 10 mg/kg, ip; type: organism-based; conditions: in vivo
# [29] = Toxicity in female ICR peritonitis mouse model infected with methicillin-resistant Staphylococcus aureus ATCC 4330 assessed as kidney damage at 10 mg/kg, ip; type: organism-based; conditions: in vivo
smiles,measurement,setting,value
O=C(c1ccccc1Br)c1nccc2c1[nH]c1ccc(Br)cc12,MIC,Staphylococcus aureus [1],> 200 µg/mL
O=C(O)c1ccc2[nH]c3c4[n+](ccc3c2c1)-c1ccccc1C4=O.[Br-],MIC,Staphylococcus aureus [1],6.25 µg/mL
same,Activity,Staphylococcus aureus [2],0 log10CFU/ml
same,Activity,Staphylococcus aureus [3],Active
same,Activity,Staphylococcus aureus [4],2 log10CFU/ml
CCCCNC(=O)c1ccc2[nH]c3c(C(=O)c4ccccc4Br)nccc3c2c1,MIC,Staphylococcus aureus [1],> 200 µg/mL
O=C1c2ccccc2-[n+]2ccc3c([nH]c4ccccc43)c21.[Cl-] [FASCAPLYSIN CHLORIDE],MIC,Staphylococcus aureus [1],0.78 µg/mL
same,Stability,[5],94.9%
same,Activity,Staphylococcus aureus [2],0 log10CFU/ml
same,Activity,Staphylococcus aureus [4],2 log10CFU/ml
same,Cmax,[6],414 ng/mL
same,Cmax,[7],65.2 ng/mL
NC(=O)c1ccc2[nH]c3c4[n+](ccc3c2c1)-c1ccccc1C4=O.[Br-],MIC,Staphylococcus aureus [1],200 µg/mL
Cc1ccc2[nH]c3c4[n+](ccc3c2c1)-c1ccccc1C4=O,Activity,Staphylococcus aureus [3],Active
same,Activity,Staphylococcus aureus [8],Active
same,Activity,Staphylococcus aureus [9],Active
same,Activity,Staphylococcus aureus [10],Active
same,Activity,Staphylococcus aureus [11],Active
same,Activity,Staphylococcus aureus [12],Active
same,Activity,Staphylococcus aureus [13],Active
same,Activity,Staphylococcus aureus [14],1.11%
same,inhibition of DNA migration,DNA [15],Active
same,Activity,DNA [16],Active
O=C(O)c1ccc2[nH]c3c(C(=O)c4ccccc4Br)nccc3c2c1,MIC,Staphylococcus aureus [1],> 200 µg/mL
O=C(Nc1cccc2ccccc12)c1ccc2[nH]c3c(C(=O)c4ccccc4Br)nccc3c2c1,MIC,Staphylococcus aureus [1],> 200 µg/mL
Cc1ccc2[nH]c3c4[n+](ccc3c2c1)-c1ccccc1C4=O.[Cl-],MIC,Staphylococcus aureus [1],0.78 µg/mL
same,Activity,Staphylococcus aureus [2],0.1 log10CFU/ml
same,Activity,Staphylococcus aureus [4],2 log10CFU/ml
O=C1c2ccccc2-[n+]2ccc3c([nH]c4ccc(Br)cc43)c21.[Br-],MIC,Staphylococcus aureus [1],0.098 µg/mL
same,Activity,Staphylococcus aureus [2],2.4 log10CFU/ml
same,Activity,Staphylococcus aureus [3],Active
same,Activity,Staphylococcus aureus [4],2 log10CFU/ml
same,Activity,Staphylococcus aureus [8],Active
same,hemolysis at 12.5 ug/ml,[17],0%
same,"viability at 24 h, 12.5 ug/ml",[18],72.3%
same,"viability at 24 h, 25 ug/ml",[19],86.5%
same,"viability at 24 h, 50 ug/ml",[20],92.9%
same,Activity,Staphylococcus aureus [9],Active
same,Activity,Staphylococcus aureus [10],Active
same,Activity,Staphylococcus aureus [11],Active
same,Activity,Staphylococcus aureus [12],Active
same,Activity,Staphylococcus aureus [13],Active
same,Activity,Staphylococcus aureus [21],19.3%
same,inhibition of DNA migration,DNA [15],Active
same,Activity,DNA [16],Active
same,inhibition at 1.56 µg/mL,Staphylococcus aureus [22],74.9%
same,fold change (FC),Staphylococcus aureus [23],2.12
same,Activity,Staphylococcus aureus [24],20%
same,Survival,Staphylococcus aureus [25],2 days
same,Activity,Staphylococcus aureus [26],Active
same,Activity,[27],Non-Toxic
same,Activity,[28],Non-Toxic
same,Activity,[29],Non-Toxic
CCCCNC(=O)c1ccc2[nH]c3c4[n+](ccc3c2c1)-c1ccccc1C4=O.[Br-],MIC,Staphylococcus aureus [1],6.25 µg/mL
same,Activity,Staphylococcus aureus [2],0.5 log10CFU/ml
same,Activity,Staphylococcus aureus [3],Active
same,Activity,Staphylococcus aureus [4],2 log10CFU/ml
same,Activity,Staphylococcus aureus [8],Active
